One series deals with Panc-1 cells. As to the kind of experiment: Cell viability with gemcitabine, CellTiter-Glo 2.0, Panc-1 cells. The conditions noted are these: naïve (unedited) Panc-1 cells, 72 hours. The class given is cell-based, Human. Here is the method:
Wildtype and transfected Panc-1 cells were plated to 24 well plates (n=5) at 50,000 cells per well and placed in incubator for 24 hours. The cells were then treated with either Gemcitabine (Selleckchem, Cat. S1714) or DMSO (Thermo Fisher, Cat. D12345). Cells treated with Gemcitabine were treated at one of the following concentrations: 0 μM, 2.5 μM, 5 μM, 25 μM while cells treated with DMSO were treated at: 0%, 0.025%, 0.05%, or 0.25%. Cells remained in Gemcitabine or DMSO for 72 hours before being evaluated using CellTiter-Glo 2.0 Cell Viability Assay (Promega, Cat. G9241).
Since our long-term objective is to develop an effective genetic treatment that would augment standard care, we decided to examine the possibility that we could restore sensitivity to gemcitabine by genetic editing of NRF2 in gemcitabine resistant Panc1 cells. We are using gemcitabine as a selection system to determine if gene editing at some level, can help restore tumor cell killing. We established the kill curve of Panc1 unedited cells by gemcitabine under our standard reaction conditions to serve as a baseline. […] Again, after 72 hours, each cell population was exposed to gemcitabine for an additional 72 hours and thereafter cell viability of the treated and untreated cells was measured using the Cell Titer 2.0 viability assay (Promega, Madison, WI, USA). […]
For orientation: Cellular ATP, detected with luciferase, serves as a proxy for viable cell number.

Another series has as its system NRF2. The series is described as follows: NRF2 western blot in Panc-1 cells. The class given is cell-based, Human. The conditions noted are these: edited Panc-1 populations vs unedited, GAPDH loading control. The protocol: Panc-1 cell pellets were collected using a standard RIPA lysis buffer containing protease inhibitor cocktail. Total protein concentration of collected cells was then determined using BCA Protein Assay kit (Pierce, Rockford, IL, USA). The samples were boiled at 95° C. for 10 minutes and then underwent SDS-PAGE on a 10% Mini-PROTEAN TGX Stain-free Protein Gel (BioRad, Cat. 4568033) for 90 min at 100 V. The gel was then transferred to a nitrocellulose membrane using Trans-Blot Turbo Transfer Systems (BioRad, Hercules, CA, USA) with Trans-Blot Turbo RTA Mini 0.2 μm Nitrocellulose Transfer Kit (BioRad Cat. 1704158), mixed molecular weight program, 10 minutes. The blot was placed in 5% milk and blocked at room temperature on shaker for 2 hours. Incubation in primary NRF2 antibody was done overnight at 4° C. on shaker (1:1,000, Abcam ab62352). Membrane was then incubated at room temperature on shaker for 1 hour in NRF2 secondary (1:10,000, Abcam ab205718). The SuperSignal West Dura Extended Duration ECL (Pierce) kit was used on the LI-COR Odyssey FC to visualize bands. […]
(In general: In western blotting, separated proteins are transferred to a membrane and probed.)

The record followed here is patent US20250319206A1, “CRISPR/CAS GENE EDITING OF NEH4 AND/OR NEH5 DOMAINS IN NRF2” (Christina Care Gene Editing Institute, Inc., priority 2024, published 2025).

On to `Nc1ccn([C@@H]2O[C@H](CO)[C@@H](O)C2(F)F)c(=O)n1` [gemcitabine, reference compound], for which, in the series with Panc-1 cells, the “concentration of drug to achieve 75% killing” value was about 100 µM.

For the molecule “sg5: gRNA targeting exon 3 of NRF2; CCTCATTGTCATCTACAAAC GGG (guide CCTCATTGTCATCTACAAACGGG; listed as DNA, chemistry not given here)”, the NRF2 protein knock down result in the series with NRF2 is “significant knockdown of protein”.
